Measurements taken from US20220363686A1 (AiCuris GmbH & Co. KG, priority 2018, published 2022).

Columns and labels:
HBV = experiment: Determination of HBV DNA from the supernatants of HepAD38 cells (anti-HBV activity); type: cell-based, hepatitis B virus; settings: Hepatitis B virus, HePAD38, 144 h, HBV DNA in HepAD38 supernatant, day 6, qPCR; read-out: Cell Activity
How it was run: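 HepAD38 cells (60,000/well) seeded in tetracycline-free medium to induce HBV, treated with half-log serial compound dilutions for 6 days at 37 °C. HBV DNA purified from filtered supernatant and quantified by real-time PCR against HBV plasmid standards; EC50 from relative copy numbers by non-linear regression.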

[1] = Cell viability assay (AlamarBlue); settings: human, HepAD38 cells
[2] = molecular target: HBV core protein (C-terminal truncated core protein containing 149 amino acids of the N-terminal assembly domain) (UniProt P03146); experiment: Biochemical capsid assembly assay (fluorescence quenching); design: rows headed: Assembly Activity; other: BODIPY-FL labelled core protein, assembly started with NaCl, read after 6 min; settings: read-out: Assembly Activity; BODIPY-FL labelled core protein, assembly started with NaCl, read after 6 min
Sequence of HBV core protein (C-terminal truncated core protein containing 149 amino acids of the N-terminal assembly domain) (P03146 whole entry, the tested form may be a part): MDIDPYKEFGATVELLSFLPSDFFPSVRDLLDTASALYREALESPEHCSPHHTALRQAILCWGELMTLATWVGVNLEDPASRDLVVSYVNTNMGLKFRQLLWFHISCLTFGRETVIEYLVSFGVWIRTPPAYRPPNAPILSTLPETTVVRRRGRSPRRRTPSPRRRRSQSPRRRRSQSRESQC
How it was run: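 N-terminal assembly domain (residues 1–149) plus C-terminal Cys150, E. coli-expressed, BODIPY-FL-maleimide labelled, used at 1.0–2.0 μM in 50 mM HEPES pH 7.5 with 0.5% DMSO. Assembly started with NaCl ([…]); fluorescence quenching (ex 477/em 525 nm) read after 6 min. 8-point compound series; EC50 by non-linear regression.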

SMILES	EC50 (HBV) [µM]	CC50 at 6 days [1] [µM]	IC50 [2] [µM]
CN(CC1(O)CCC1)C(=O)c1cnn2c1CN(C(=O)c1cc3ccccc3[nH]1)CC2 [Example 137, N-[(1-hydroxycyclobutyl)methyl]-5-(1H-indole-2-carbonyl)-N-methyl-4H,5H,6H,7H-pyrazolo[1,5-a]pyrazine-3-carboxamide]	< 1	> 10	< 5
O=C(c1cc2ccccc2[nH]1)N1CCn2ncc(-c3cscn3)c2C1 [Example 66, 2-[3-(1,3-thiazol-4-yl)-4H,5H,6H,7H-pyrazolo[1,5-a]pyrazine-5-carbonyl]-1H-indole]	< 1	> 10	< 5
CC1Cn2ncc(C(=O)N[C@H](C)C(F)(F)F)c2CN1C(=O)c1cc2c(F)c(F)ccc2[nH]1 (stereo partly drawn) [Example 143, 5-(4,5-difluoro-1H-indole-2-carbonyl)-6-methyl-N-[(2R)-1,1,1-trifluoropropan-2-yl]-4H,5H,6H,7H-pyrazolo[1,5-a]pyrazine-3-carboxamide]	< 1	> 10	< 5
O=C(c1cc2c(F)cc(F)cc2[nH]1)N1CCn2ncc(C3CCC3)c2C1 [Example 5, 2-{3-cyclobutyl-4H,5H,6H,7H-pyrazolo[1,5-a]pyrazine-5-carbonyl}-4,6-difluoro-1H-indole]	< 1	> 10	< 5
Cc1cc(F)cc2[nH]c(C(=O)N3CCn4ncc(C(=O)N5CCCOCC56CC6)c4C3)cc12 [Example 107, 4-[5-(6-fluoro-4-methyl-1H-indole-2-carbonyl)-4H,5H,6H,7H-pyrazolo[1,5-a]pyrazine-3-carbonyl]-8-oxa-4-azaspiro[2.6]nonane]	< 1	> 10	< 5
O=C(NC1(C(F)(F)F)CC1)c1cnn2c1CN(C(=O)c1cc3ccccc3[nH]1)CC2 [Example 101, 5-(1H-indole-2-carbonyl)-N-[1-(trifluoromethyl)cyclopropyl]-4H,5H,6H,7H-pyrazolo[1,5-a]pyrazine-3-carboxamide]	< 1	> 10	< 5
O=C(NC1(CCOC(F)F)COC1)c1cnn2c1CN(C(=O)c1cc3ccccc3[nH]1)CC2 [Example 148, N-{3-[2-(difluoromethoxy)ethyl]oxetan-3-yl}-5-(1H-indole-2-carbonyl)-4H,5H,6H,7H-pyrazolo[1,5-a]pyrazine-3-carboxamide]	< 1	> 10	< 5
O=C(NC1(CCOC(F)F)CCC1)c1cnn2c1CN(C(=O)c1cc3ccccc3[nH]1)CC2 [Example 123, N-{1-[2-(difluoromethoxy)ethyl]cyclobutyl}-5-(1H-indole-2-carbonyl)-4H,5H,6H,7H-pyrazolo[1,5-a]pyrazine-3-carboxamide]	< 1	> 10	< 5
O=C(c1cc2ccccc2[nH]1)N1CCn2ncc(C(=O)N(C3CC3)C3CC3)c2C1 [Example 60, N,N-dicyclopropyl-5-(1H-indole-2-carbonyl)-4H,5H,6H,7H-pyrazolo[1,5-a]pyrazine-3-carboxamide]	< 1	> 10	< 5
C[C@@H](NC(=O)c1cnn2c1CN(C(=O)c1cc3ccccc3[nH]1)CC2)C(F)(F)F [Example 79, 5-(1H-indole-2-carbonyl)-N-[(2R)-1,1,1-trifluoropropan-2-yl]-4H,5H,6H,7H-pyrazolo[1,5-a]pyrazine-3-carboxamide]	< 1	> 10	< 5
CN(C)S(=O)(=O)c1cnn2c1CN(C(=O)c1cc3ccccc3[nH]1)CC2 [Example 40, 5-(1H-indole-2-carbonyl)-N,N-dimethyl-4H,5H,6H,7H-pyrazolo[1,5-a]pyrazine-3-sulfonamide]	< 1	> 10	< 5
Cc1c(F)ccc2[nH]c(C(=O)N3Cc4c(C(=O)N[C@H](C)C(F)(F)F)cnn4CC3C)cc12 (stereo partly drawn) [Example 144, 5-(5-fluoro-4-methyl-1H-indole-2-carbonyl)-6-methyl-N-[(2R)-1,1,1-trifluoropropan-2-yl]-4H,5H,6H,7H-pyrazolo[1,5-a]pyrazine-3-carboxamide]	< 1	> 10	< 5
CN(CCO)C(=O)c1cnn2c1CN(C(=O)c1cc3ccccc3[nH]1)CC2 [Example 77, N-(2-hydroxyethyl)-5-(1H-indole-2-carbonyl)-N-methyl-4H,5H,6H,7H-pyrazolo[1,5-a]pyrazine-3-carboxamide]	< 1	> 10	< 5
CN(C(=O)c1cnn2c1CN(C(=O)c1cc3ccccc3[nH]1)CC2)C1(COC(F)F)CC1 [Example 16, N-{1-[(difluoromethoxy)methyl]cyclopropyl}-5-(1H-indole-2-carbonyl)-N-methyl-4H,5H,6H,7H-pyrazolo[1,5-a]pyrazine-3-carboxamide]	< 1	> 10	< 5
CN(C(=O)c1cnn2c1CN(C(=O)c1cc3ccccc3[nH]1)CC2)C1(CCOC(F)F)CCC1 [Example 126, N-{1-[2-(difluoromethoxy)ethyl]cyclobutyl}-5-(1H-indole-2-carbonyl)-N-methyl-4H,5H,6H,7H-pyrazolo[1,5-a]pyrazine-3-carboxamide]	1 to 10	> 10	< 5
CN(C(=O)c1cnn2c1CN(C(=O)c1cc3ccccc3[nH]1)CC2)C1(CCOC(F)F)CCCC1 [Example 127, N-{1-[2-(difluoromethoxy)ethyl]cyclopentyl}-5-(1H-indole-2-carbonyl)-N-methyl-4H,5H,6H,7H-pyrazolo[1,5-a]pyrazine-3-carboxamide]	1 to 10	> 10	< 5
CN(C(=O)c1cnn2c1CN(C(=O)c1cc3ccccc3[nH]1)CC2)C1CC1 [Example 74, N-cyclopropyl-5-(1H-indole-2-carbonyl)-N-methyl-4H,5H,6H,7H-pyrazolo[1,5-a]pyrazine-3-carboxamide]	< 1	> 10	< 5
CCc1cc(F)cc2[nH]c(C(=O)N3CCn4ncc(C(=O)N(C)C5(COC(F)F)CC5)c4C3)cc12 [Example 22, N-{1-[(difluoromethoxy)methyl]cyclopropyl}-5-(4-ethyl-6-fluoro-1H-indole-2-carbonyl)-N-methyl-4H,5H,6H,7H-pyrazolo[1,5-a]pyrazine-3-carboxamide]	< 1	> 10	< 5
CN(CCO)C(=O)c1cnn2c1CN(C(=O)c1cc3c(F)cc(F)cc3[nH]1)CC2 [Example 129, 5-(4,6-difluoro-1H-indole-2-carbonyl)-N-(2-hydroxyethyl)-N-methyl-4H,5H,6H,7H-pyrazolo[1,5-a]pyrazine-3-carboxamide]	< 1	> 10	< 5
O=C(c1cc2ccccc2[nH]1)N1CCn2ncc(C(=O)N(CCO)C3(CO)CC3)c2C1 [Example 75, N-(2-hydroxyethyl)-N-[1-(hydroxymethyl)cyclopropyl]-5-(1H-indole-2-carbonyl)-4H,5H,6H,7H-pyrazolo[1,5-a]pyrazine-3-carboxamide]	< 1	> 10	< 5
O=C(NC1(C(F)(F)F)CCC1)c1cnn2c1CN(C(=O)c1cc3ccccc3[nH]1)CC2 [Example 106, 5-(1H-indole-2-carbonyl)-N-[1-(trifluoromethyl)cyclobutyl]-4H,5H,6H,7H-pyrazolo[1,5-a]pyrazine-3-carboxamide]	< 1	> 10	< 5
O=C(c1cc2ccccc2[nH]1)N1CCn2ncc(C(=O)N3CC4C(C3)C4(F)F)c2C1 (stereo not drawn) [Example 42, 2-(3-{6,6-difluoro-3-azabicyclo[3.1.0]hexane-3-carbonyl}-4H,5H,6H,7H-pyrazolo[1,5-a]pyrazine-5-carbonyl)-1H-indole]	< 1	> 10	< 5
O=C(NC1(COC(F)F)CC1)c1cnn2c1CN(C(=O)c1cc3ccccc3[nH]1)CC2 [Example 97, N-{1-[(difluoromethoxy)methyl]cyclopropyl}-5-(1H-indole-2-carbonyl)-4H,5H,6H,7H-pyrazolo[1,5-a]pyrazine-3-carboxamide]	< 1	> 10	< 5
Cc1c(F)ccc2[nH]c(C(=O)N3CCn4ncc(C(=O)NC5(COC(F)F)CC5)c4C3)cc12 [Example 103, N-{1-[(difluoromethoxy)methyl]cyclopropyl}-5-(5-fluoro-4-methyl-1H-indole-2-carbonyl)-4H,5H,6H,7H-pyrazolo[1,5-a]pyrazine-3-carboxamide]	< 1	> 10	< 5
Cc1c(F)ccc2[nH]c(C(=O)N3CCn4ncc(C(=O)N5CCC(O)CC56CC6)c4C3)cc12 (stereo not drawn) [Example 120, 4-[5-(5-fluoro-4-methyl-1H-indole-2-carbonyl)-4H,5H,6H,7H-pyrazolo[1,5-a]pyrazine-3-carbonyl]-4-azaspiro[2.5]octan-7-ol]	< 1	> 10	< 5
O=C(c1cc2ccccc2[nH]1)N1CCn2ncc(C(=O)N3CCC4CC43)c2C1 (stereo not drawn) [Example 48, 2-(3-{2-azabicyclo[3.1.0]hexane-2-carbonyl}-4H,5H,6H,7H-pyrazolo[1,5-a]pyrazine-5-carbonyl)-1H-indole]	1 to 10	> 10	< 5
